Experimental data published in the supplement of paper PMC10307832.

Assays:
Test in all cases: relative viability (nuclei count vs DMSO), 5 days (fraction); higher = more cells survive
NCI-H2347 = system: NCI-H2347
Procedure, shortened: (§1)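 After 5 days of treatment, lung cancer cells in 1536-well plates were fixed and stained in a single step (final 0.05% Triton X-100, 1% formaldehyde, 1 ug/ml Hoechst) and their nuclei counted on 4× images. Treatment had been applied by pin tool the day after seeding as one drug alone or as a fixed anchor-drug dose with five library-drug doses (not always all listed) in √10 steps. Relative viability is the nuclei count of treated wells divided by that of vehicle wells, and values are medians of duplicate plates.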

EPLC-272H = system: EPLC-272H
Procedure, shortened: as §1

H3255 = system: H3255
Procedure, shortened: as §1

NCI-H650 = system: NCI-H650
Procedure, shortened: as §1

201T = system: 201T
Procedure, shortened: as §1

COR-L 105 = system: COR-L 105
Procedure, shortened: as §1

NCI-H2087 = system: NCI-H2087
Procedure, shortened: as §1

NCI-H2126 = system: NCI-H2126
Procedure, shortened: as §1

NCI-H2405 = system: NCI-H2405
Procedure, shortened: as §1

HCC-78 = system: HCC-78
Procedure, shortened: as §1

LC-2-ad = system: LC-2-ad
Procedure, shortened: as §1

NCI-H1666 = system: NCI-H1666
Procedure, shortened: as §1

LCLC-97TM1 = system: LCLC-97TM1
Procedure, shortened: as §1

NCI-H23 = system: NCI-H23
Procedure, shortened: as §1

NCI-H322M = system: NCI-H322M
Procedure, shortened: as §1

HCC-827 = system: HCC-827
Procedure, shortened: as §1

NCI-H1915 = system: NCI-H1915
Procedure, shortened: as §1

NCI-H520 = system: NCI-H520
Procedure, shortened: as §1

NCI-H661 = system: NCI-H661
Procedure, shortened: as §1

PC-14 = system: PC-14
Procedure, shortened: as §1

RERF-LC-KJ = system: RERF-LC-KJ
Procedure, shortened: as §1

NCI-H647 = system: NCI-H647
Procedure, shortened: as §1

NC(=O)Nc1cc(-c2cccc(F)c2)sc1C(=O)N[C@H]1CCCNC1 [AZD7762] + CS(=O)(=O)CCNCc1ccc(-c2ccc3ncnc(Nc4ccc(OCc5cccc(F)c5)c(Cl)c4)c3c2)o1 [Lapatinib] (partner 2 µM)
relative viability (NCI-H2347; first compound 0.01 µM): 1.11 | relative viability (NCI-H2347; first compound 0.03162 µM): 0.986 | relative viability (NCI-H2347; first compound 0.1 µM): 1.07 | relative viability (NCI-H2347; first compound 0.3162 µM): 0.934 | relative viability (NCI-H2347; first compound 1 µM): 1.17 | relative viability (EPLC-272H; first compound 0.01 µM): 0.875 | relative viability (EPLC-272H; first compound 0.03162 µM): 1.19 | relative viability (EPLC-272H; first compound 0.1 µM): 0.846 | relative viability (EPLC-272H; first compound 0.3162 µM): 0.967 | relative viability (EPLC-272H; first compound 1 µM): 0.912 | relative viability (H3255; first compound 0.01 µM): 0.316 | relative viability (H3255; first compound 0.03162 µM): 0.256 | relative viability (H3255; first compound 0.1 µM): 0.244 | relative viability (H3255; first compound 0.3162 µM): 0.264 | relative viability (H3255; first compound 1 µM): 0.244 | relative viability (NCI-H650; first compound 0.01 µM): 1.04 | relative viability (NCI-H650; first compound 0.03162 µM): 1.11 | relative viability (NCI-H650; first compound 0.1 µM): 0.813 | relative viability (NCI-H650; first compound 0.3162 µM): 0.747 | relative viability (NCI-H650; first compound 1 µM): 0.827 | relative viability (201T; first compound 0.01 µM): 1.03 | relative viability (201T; first compound 0.03162 µM): 0.99 | relative viability (201T; first compound 0.1 µM): 1.03 | relative viability (201T; first compound 0.3162 µM): 1.15 | relative viability (201T; first compound 1 µM): 1.15 | relative viability (COR-L 105; first compound 0.01 µM): 0.413 | relative viability (COR-L 105; first compound 0.03162 µM): 0.353 | relative viability (COR-L 105; first compound 0.1 µM): 0.254 | relative viability (COR-L 105; first compound 0.3162 µM): 0.332 | relative viability (COR-L 105; first compound 1 µM): 0.282 | relative viability (NCI-H2087; first compound 0.01 µM): 1.23 | relative viability (NCI-H2087; first compound 0.03162 µM): 1.01 | relative viability (NCI-H2087; first compound 0.1 µM): 1.01 | relative viability (NCI-H2087; first compound 0.3162 µM): 1.24 | relative viability (NCI-H2087; first compound 1 µM): 1.16 | relative viability (NCI-H2126; first compound 0.01 µM): 0.774 | relative viability (NCI-H2126; first compound 0.03162 µM): 0.82 | relative viability (NCI-H2126; first compound 0.1 µM): 0.834 | relative viability (NCI-H2126; first compound 0.3162 µM): 0.803 | relative viability (NCI-H2126; first compound 1 µM): 0.821 | relative viability (NCI-H2405; first compound 0.01 µM): 1.11 | relative viability (NCI-H2405; first compound 0.03162 µM): 1.41 | relative viability (NCI-H2405; first compound 0.1 µM): 0.998 | relative viability (NCI-H2405; first compound 0.3162 µM): 1.01 | relative viability (NCI-H2405; first compound 1 µM): 0.422 | relative viability (HCC-78; first compound 0.01 µM): 0.863 | relative viability (HCC-78; first compound 0.03162 µM): 0.791 | relative viability (HCC-78; first compound 0.1 µM): 0.842 | relative viability (HCC-78; first compound 0.3162 µM): 0.653 | relative viability (HCC-78; first compound 1 µM): 0.304 | relative viability (LC-2-ad; first compound 0.01 µM): 1.05 | relative viability (LC-2-ad; first compound 0.03162 µM): 1.04 | relative viability (LC-2-ad; first compound 0.1 µM): 0.47 | relative viability (LC-2-ad; first compound 0.3162 µM): 0.392 | relative viability (LC-2-ad; first compound 1 µM): 0.258 | relative viability (NCI-H1666; first compound 0.01 µM): 0.671 | relative viability (NCI-H1666; first compound 0.03162 µM): 0.821 | relative viability (NCI-H1666; first compound 0.1 µM): 0.73 | relative viability (NCI-H1666; first compound 0.3162 µM): 0.629 | relative viability (NCI-H1666; first compound 1 µM): 0.708 | relative viability (LCLC-97TM1; first compound 0.01 µM): 0.834 | relative viability (LCLC-97TM1; first compound 0.03162 µM): 1.13 | relative viability (LCLC-97TM1; first compound 0.1 µM): 0.821 | relative viability (LCLC-97TM1; first compound 0.3162 µM): 0.555 | relative viability (LCLC-97TM1; first compound 1 µM): 0.609 | relative viability (NCI-H23; first compound 0.01 µM): 1.08 | relative viability (NCI-H23; first compound 0.03162 µM): 1.04 | relative viability (NCI-H23; first compound 0.1 µM): 1.18 | relative viability (NCI-H23; first compound 0.3162 µM): 0.508 | relative viability (NCI-H23; first compound 1 µM): 0.3 | relative viability (NCI-H322M; first compound 0.01 µM): 0.627 | relative viability (NCI-H322M; first compound 0.03162 µM): 0.675 | relative viability (NCI-H322M; first compound 0.1 µM): 0.532 | relative viability (NCI-H322M; first compound 0.3162 µM): 0.535 | relative viability (NCI-H322M; first compound 1 µM): 0.456 | relative viability (HCC-827; first compound 0.01 µM): 0.202 | relative viability (HCC-827; first compound 0.03162 µM): 0.177 | relative viability (HCC-827; first compound 0.1 µM): 0.189 | relative viability (HCC-827; first compound 0.3162 µM): 0.178 | relative viability (HCC-827; first compound 1 µM): 0.197 | relative viability (NCI-H1915; first compound 0.01 µM): 1 | relative viability (NCI-H1915; first compound 0.03162 µM): 1 | relative viability (NCI-H1915; first compound 0.1 µM): 0.943 | relative viability (NCI-H1915; first compound 0.3162 µM): 0.909 | relative viability (NCI-H1915; first compound 1 µM): 0.933 | relative viability (NCI-H520; first compound 0.01 µM): 0.825 | relative viability (NCI-H520; first compound 0.03162 µM): 0.864 | relative viability (NCI-H520; first compound 0.1 µM): 0.735 | relative viability (NCI-H520; first compound 0.3162 µM): 0.304 | relative viability (NCI-H520; first compound 1 µM): 0.254 | relative viability (NCI-H661; first compound 0.01 µM): 0.6 | relative viability (NCI-H661; first compound 0.03162 µM): 0.546 | relative viability (NCI-H661; first compound 0.1 µM): 0.512 | relative viability (NCI-H661; first compound 0.3162 µM): 0.405 | relative viability (NCI-H661; first compound 1 µM): 0.28 | relative viability (PC-14; first compound 0.01 µM): 0.345 | relative viability (PC-14; first compound 0.03162 µM): 0.305 | relative viability (PC-14; first compound 0.1 µM): 0.348 | relative viability (PC-14; first compound 0.3162 µM): 0.256 | relative viability (PC-14; first compound 1 µM): 0.299 | relative viability (RERF-LC-KJ; first compound 0.01 µM): 0.865 | relative viability (RERF-LC-KJ; first compound 0.03162 µM): 0.894 | relative viability (RERF-LC-KJ; first compound 0.1 µM): 0.849 | relative viability (RERF-LC-KJ; first compound 0.3162 µM): 0.819 | relative viability (RERF-LC-KJ; first compound 1 µM): 0.956 | relative viability (NCI-H647; first compound 0.01 µM): 1.14 | relative viability (NCI-H647; first compound 0.03162 µM): 1.12 | relative viability (NCI-H647; first compound 0.1 µM): 0.963 | relative viability (NCI-H647; first compound 0.3162 µM): 0.519 | relative viability (NCI-H647; first compound 1 µM): 0.0944
